Patent US9949965B2, “Tricyclic indole Mcl-1 inhibitors and uses thereof” (priority 2014, dated 2018)
Where two headings read alike, the source gives them in different places.

Assays:
[1] = biological target: T1, recombinant Mcl-1 (residues 172-327) (Homo sapiens, UniProt Q07820); test: Bak peptide binding assay: fluorescence polarization anisotropy competition (FITC-Bak BH3 peptide); settings: 10 nM FITC-Bak, 14 nM Mcl-1, Ki converted from IC50
T1 construct: 14 nM recombinant Mcl-1 (residues 172-327) were added to assay buffer
T1 sequence (Q07820 172-327): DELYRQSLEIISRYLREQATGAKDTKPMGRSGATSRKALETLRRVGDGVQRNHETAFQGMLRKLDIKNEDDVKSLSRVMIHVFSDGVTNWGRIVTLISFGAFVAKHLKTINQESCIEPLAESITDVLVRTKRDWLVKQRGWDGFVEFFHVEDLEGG
Procedure: (§1) Bak Peptide Binding Assay
(§2) Compound affinity was measured using a fluorescence polarization anisotropy competition assay. Anisotropy measurements were carried out in 384-well, black, flat-bottom plates (Greiner Bio-one, Monroe, N.C., USA). The assay was run using a fluorescein isothiocyanate-labeled BH3 peptide derived from Bak (FITC-AHx-[…] […] H2) (SEQ ID NO: 1) that was purchased from GenScript (Piscataway, N.J.) at >95% purity and used without further purification. 10 nM FITC-Bak peptide and 14 nM recombinant Mcl-1 (residues 172-327) were added to assay buffer (3 mM dithiothreitol, 50 mM NaCl, 20 mM Tris, pH 7.5). For selectivity assays, 40 nM Bcl-2 (residues 1-207^A96T,G110R, Δ35-91, replaced with Bcl-xL35-50) or 4 nM Bcl-xL (residues 1-209, loop 45-86 deleted) were incubated with 10 nM FITC-Bak in assay buffer.
(§3) Compounds are diluted in DMSO in a 10-point, 3-fold serial dilution scheme. 2.5 uL compound is added to 47.5 uL of assay buffer containing FITC-Bak and protein, for a final DMSO concentration of 5% and a top concentration of 20 uM. […] The plate was mixed and incubated for 90 minutes at room temperature. Anisotropy is measured at excitation wavelength 480 nm and emission wavelength 535 nm using an EnVision Multi-label plate reader (PerkinElmer, Wellesley, Mass., USA). Fluorescence anisotropy is plotted against compound concentration to generate an IC50 (inhibitor concentration at which 50% of bound peptide is displaced) by fitting the data to a 4-parameter logistic model using XLFit software (Guildford, Surrey, UK). IC50 is converted to a binding dissociation constant (Ki value) according to the formula of Wang Z. FEBS Lett (1996) 3, 245: Ki=[I]50/([L]50/Kd+[P]0/Kd+1) where [I]50 is the concentration of the free inhibitor at 50% inhibition, [L]50 is the concentration of the free labeled ligand at 50% inhibition, [P]0 is the concentration of the free protein at 0% inhibition, Kd represents the dissociation constant of the FITC peptide probe.

[2] = biological target: T2, Bcl-xL (residues 1-209, loop 45-86 deleted) (Homo sapiens, UniProt Q07817, DEL45-86); test: biochemical; assay type: binding; settings: Table 3; 10 nM FITC-Bak, 4 nM Bcl-xL; top concentration 20 uM
T2 construct: Bcl-xL (residues 1-209, loop 45-86 deleted)
T2 sequence (Q07817 other isoform, or with tags, fused parts or gaps DEL45-86): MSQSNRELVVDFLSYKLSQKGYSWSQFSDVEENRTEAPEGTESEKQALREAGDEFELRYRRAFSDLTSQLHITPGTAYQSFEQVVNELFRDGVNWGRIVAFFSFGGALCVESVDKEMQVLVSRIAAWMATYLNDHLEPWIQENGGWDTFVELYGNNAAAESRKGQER
Procedure: as §1, §2, §3

[3] = Ki For Inhibition of Mcl-I Protein, Table 2, binned range

Compound | Ki [1, 3] | also measured
CS(=O)(=O)NC(=O)c1c(CCCOc2cccc3ccccc23)c2cccc3c2n1CCCS3 [Example 19, N-(methylsulfonyl)-7-(3-(naphthalen-1-yloxy)propyl)-3,4-dihydro-2H-[1,4]thiazepino[2,3,4-hi]indole-6-carboxamide] | 501 to 999 nM | 
CS(=O)(=O)NC(=O)c1c(CCCOc2cccc3ccccc23)c2cccc3c2n1CCS3 [Example 8, N-(methylsulfonyl)-6-(3-(naphthalen-1-yloxy)propyl)-2,3-dihydro-[1,4]thiazino[2,3,4-hi]indole-5-carboxamide] | 1000 to 9990 nM | 
O=C(O)c1c(CCOc2cccc3ccccc23)c2cccc3c2n1CCS3 [Example 1, 6-(2-(naphthalen-1-yloxy)ethyl)-2,3-dihydro-[1,4]thiazino[2,3,4-hi]indole-5-carboxylic acid] | 1000 to 9990 nM | 
O=C(O)c1c(CCCOc2cccc3ccccc23)c2cccc3c2n1CCC[S+]3[O-] (stereo not drawn) [Example 20, 7-(3-(naphthalen-1-yloxy)propyl)-3,4-dihydro-2H-[1,4]thiazepino[2,3,4-hi]indole-6-carboxylic acid 1-oxide] | ≤ 100 nM | Ki [2]: > 20000 nM
Cc1cc(OCCCc2c(C(=O)O)n3c4c(cccc24)SCCC3)cc(C)c1Cl [Example 23, 7-(3-(4-chloro-3,5-dimethylphenoxy)propyl)-3,4-dihydro-2H-[1,4]thiazepino[2,3,4-hi]indole-6-carboxylic acid] | ≤ 100 nM | Ki ([1]; Table 3, read-out: Ki Mcl-1): 40 nM; Ki [2]: > 20000 nM
O=C(O)c1c(CCCOc2ccc3c(c2)CCCC3)c2cccc3c2n1CCS3 [Example 11, 6-(3-((5,6,7,8-tetrahydronaphthalen-2-yl)oxy)propyl)-2,3-dihydro-[1,4]thiazino[2,3,4-hi]indole-5-carboxylic acid] | 301 to 500 nM | 
Cc1cc(OCCCc2c(C(=O)O)n3c4c(c(Cl)ccc24)OCC3)cc(C)c1Cl [Example 27, 9-chloro-6-(3-(4-chloro-3,5-dimethylphenoxy)propyl)-2,3-dihydro-[1,4]oxazino[2,3,4-hi]indole-5-carboxylic acid] | ≤ 100 nM | Ki ([1]; Table 3, read-out: Ki Mcl-1): 9 nM; Ki [2]: > 20000 nM
Cc1cc(OCCCc2c(C(=O)NS(=O)(=O)c3ccccc3)n3c4c(cccc24)SCCC3)cc(C)c1Cl [Example 24, 7-(3-(4-chloro-3,5-dimethylphenoxy)propyl)-N-(phenylsulfonyl)-3,4-dihydro-2H-[1,4]thiazepino[2,3,4-hi]indole-6-carboxamide] | 101 to 299 nM | 
O=C(O)c1c(CCOc2cccc3ccccc23)c2cccc3c2n1CCC3 [Example 4, 1-(2-(naphthalen-1-yloxy)ethyl)-5,6-dihydro-4H-pyrrolo[3,2,1-ij]quinoline-2-carboxylic acid] | 1000 to 9990 nM | 
Cc1cc(OCCCc2c(C(=O)O)n3c4c(c(Cl)ccc24)CCC3)cc(C)c1Cl [Example 28, 7-chloro-1-(3-(4-chloro-3,5-dimethylphenoxy)propyl)-5,6-dihydro-4H-pyrrolo[3,2,1-ij]quinoline-2-carboxylic acid] | ≤ 100 nM | 
O=C(O)c1c(CCCOc2cccc3ccccc23)c2cccc3c2n1CCS3 [Example 7, 6-(3-(naphthalen-1-yloxy)propyl)-2,3-dihydro-[1,4]thiazino[2,3,4-hi]indole-5-carboxylic acid] | 101 to 299 nM | Ki ([1]; Ki Mcl-1, Table 3): 107 nM; Ki [2]: > 20000 nM
O=C(O)c1c(CCCOc2cccc3ccccc23)c2cccc3c2n1CCCS3(=O)=O [Example 21, 7-(3-(naphthalen-1-yloxy)propyl)-3,4-dihydro-2H-[1,4]thiazepino[2,3,4-hi]indole-6-carboxylic acid 1,1-dioxide] | ≤ 100 nM | 
O=C(O)c1c(CCCOc2ccc(Cl)c3ccccc23)c2cccc3c2n1CCS3 [Example 10, 6-(3-((4-chloronaphthalen-1-yl)oxy)propyl)-2,3-dihydro-[1,4]thiazino[2,3,4-hi]indole-5-carboxylic acid] | 101 to 299 nM | Ki ([1]; Table 3, read-out: Ki Mcl-1): 201 nM; Ki [2]: 4700 nM
Cc1cc(OCCCc2c(C(=O)O)n3c4c(cccc24)CCC3)cc(C)c1Cl [Example 16, 1-(3-(4-chloro-3,5-dimethylphenoxy)propyl)-5,6-dihydro-4H-pyrrolo[3,2,1-ij]quinoline-2-carboxylic acid] | 101 to 299 nM | 
O=C(O)c1c(CCCOc2cccc3ccccc23)c2cccc3c2n1CCCS3 [Example 18, 7-(3-(naphthalen-1-yloxy)propyl)-3,4-dihydro-2H-[1,4]thiazepino[2,3,4-hi]indole-6-carboxylic acid] | 101 to 299 nM | 
Cc1cc(OCCc2c(C(=O)O)n3c4c(cccc24)SCC3)cc(C)c1Cl [Example 3, 6-(2-(4-chloro-3,5-dimethylphenoxy)ethyl)-2,3-dihydro-[1,4]thiazino[2,3,4-hi]indole-5-carboxylic acid] | 1000 to 9990 nM | 
O=C(O)c1c(CCCOc2cccc3ccccc23)c2cccc3c2n1CCC3 [Example 14, 1-(3-(naphthalen-1-yloxy)propyl)-5,6-dihydro-4H-pyrrolo[3,2,1-ij]quinoline-2-carboxylic acid] | 301 to 500 nM | 
Cc1cc(OCCCc2c(C(=O)NS(=O)(=O)c3ccccc3)n3c4c(cccc24)CCC3)cc(C)c1Cl [Example 17, 1-(3-(4-chloro-3,5-dimethylphenoxy)propyl)-N-(phenylsulfonyl)-5,6-dihydro-4H-pyrrolo[3,2,1-ij]quinoline-2-carboxamide] | 301 to 500 nM | 
CS(=O)(=O)NC(=O)c1c(CCCOc2cccc3ccccc23)c2cccc3c2n1CCC3 [Example 15, N-(methylsulfonyl)-1-(3-(naphthalen-1-yloxy)propyl)-5,6-dihydro-4H-pyrrolo[3,2,1-ij]quinoline-2-carboxamide] | 1000 to 9990 nM | 
O=C(O)c1c(CCOc2cccc3ccccc23)c2cccc3c2n1CCO3 [Example 5, 6-(2-(naphthalen-1-yloxy)ethyl)-2,3-dihydro-[1,4]oxazino[2,3,4-hi]indole-5-carboxylic acid] | 1000 to 9990 nM | 
O=C(O)c1c(CCCOc2cccc3ccccc23)c2cccc3c2n1CCS3(=O)=O [Example 22, 6-(3-(naphthalen-1-yloxy)propyl)-2,3-dihydro-[1,4]thiazino[2,3,4-hi]indole-5-carboxylic acid 1,1-dioxide] | ≤ 100 nM | 
O=C(O)c1c(CCCOc2cccc3c2CCCC3)c2cccc3c2n1CCS3 [Example 9, 6-(3-((5,6,7,8-tetrahydronaphthalen-1-yl)oxy)propyl)-2,3-dihydro-[1,4]thiazino[2,3,4-hi]indole-5-carboxylic acid] | 101 to 299 nM | 
Cc1cc(OCCCc2c(C(=O)O)n3c4c(cccc24)SCC3)ccc1Cl [Example 12, 6-(3-(4-chloro-3-methylphenoxy)propyl)-2,3-dihydro-[1,4]thiazino[2,3,4-hi]indole-5-carboxylic acid] | 101 to 299 nM | 
Cc1cc(OCCCc2c(C(=O)O)n3c4c(cccc24)SCC3)cc(C)c1Cl [Example 13, 6-(3-(4-chloro-3,5-dimethylphenoxy)propyl)-2,3-dihydro-[1,4]thiazino[2,3,4-hi]indole-5-carboxylic acid] | ≤ 100 nM | Ki ([1]; Table 3, read-out: Ki Mcl-1): 71 nM; Ki [2]: > 20000 nM
CS(=O)(=O)NC(=O)c1c(CCOc2cccc3ccccc23)c2cccc3c2n1CCS3 [Example 2, N-(methylsulfonyl)-6-(2-(naphthalen-1-yloxy)ethyl)-2,3-dihydro-[1,4]thiazino[2,3,4-hi]indole-5-carboxamide] | 1000 to 9990 nM | 
Cc1cc(OCCCc2c(C(=O)O)n3c4c(cccc24)OCC3)cc(C)c1Cl [Example 26, 6-(3-(4-chloro-3,5-dimethylphenoxy)propyl)-2,3-dihydro-[1,4]oxazino[2,3,4-hi]indole-5-carboxylic acid] | ≤ 100 nM | 
O=C(O)c1c(CCCOc2cccc3ccccc23)c2cccc3c2n1CCO3 [Example 25, 6-(3-(naphthalen-1-yloxy)propyl)-2,3-dihydro-[1,4]oxazino[2,3,4-hi]indole-5-carboxylic acid] | 101 to 299 nM | 
O=C(NS(=O)(=O)c1ccccc1)c1c(CCOc2cccc3ccccc23)c2cccc3c2n1CCO3 [Example 6, 6-(2-(naphthalen-1-yloxy)ethyl)-N-(phenylsulfonyl)-2,3-dihydro-[1,4]oxazino[2,3,4-hi]indole-5-carboxamide] | 501 to 999 nM | 
